# Laboratory results published in US20240246960A1 (adMare Therapeutics Society, priority 2021, published 2024).
# Read-outs that look alike come from different tables or passages of the source.
# Columns and labels:
# [1] = molecular target: T1, pDNA-PK ser2056 induction in HCT116 spheroids (Homo sapiens, UniProt P78527); assay: Multicellular tumour spheroid + radiation, pDNA-PK inhibition, HCT116; assay type: cell-based; details: 20 Gy
# T1 construct: endogenous in cells; host or cells: HCT116 multicellular tumour spheroids
# Protocol: Multicellular tumour spheroids determination of compound inhibition of pDNA-PK induction following radiation. Tumour spheroids were grown to approximately 0.5 mm in diameter and irradiated with 20 Gy in combination with inhibitor test compounds to determine their potency. Inhibitor concentration for 50% reduction in pDNA-PK induction (IC50) was determined via immunohistochemical staining in spheroid cryosections taken 2 hours following radiation.
# Spheroid, Cell Line: […], Immunohistochemical endpoint, pDNA-PK inhibition, EC50 in μm.
# (§1) Spheroid+radiation pDNA-PK. Radiation: 20 Gy. Drug: serial dilution 5 or 10 μM down to 3.5 nM (11 wells). Spheroids: 3-6 spheroids per well (300-500 μm diameter). 20% O2 and 5% CO2. 96 well plate format.
# Protocol: pre-incubate 1 hours with drug, irradiate with 20 Gy, post-incubate 2 hours with drug, freeze and cryosection ×3 replicates.
# Endpoint: fluorescent immunostin pDNA-PK ser2056 and image on microscope.
# Analysis: determine EC50 concentration that decreases pDNA-PK induction by 50% after radiation.
# Multicellular tumour spheroids determination of compound inhibition of pDNA-PK induction following radiation. Tumour spheroids were grown to approximately 0.5 mm in diameter and irradiated with 20 Gy in combination with inhibitor test compounds to determine their potency. Inhibitor concentration for 50% reduction in pDNA-PK induction (IC50) was determined via immunohistochemical staining in spheroid cryosections taken 2 hours following radiation. For cell survival endpoint 8 Gy radiation was used and 3 hours following radiation spheroids were dissociated, counted and plated for colony forming endpoint.
# as §1, with “format. Endpoint: fluorescent immunostain pDNA-PK ser2056 and image on microscope. Analysis: determine EC50 concentrations that decreases pDNA-PK induction […] after irradiation.” for “format.”
# Multicellular tumour spheroids were used to determine potency of test compounds in a 3D tissue environment using inhibition of pDNA-PK induction following radiation or cell survival as the endpoint. For the pDNA-PK endpoint HCT116 or FaDU tumour spheroids were grown to approximately 0.5 mm in diameter and irradiated with 20 Gy in combination with inhibitor test compounds to determine their potency. Experiments were carried out in 96 well plates containing 0.7 mls of MEM media containing 10% FBS and 10 mM glucose under 20% O2 & 5% CO2 at 37° C. Following dilution of compounds 1:1000 from DMSO stocks, compounds were serially diluted from 10 μM down to 3.5 nM and 5-10 spheroids added. 96 well plates were constantly stirred to avoid spheroids settling during the course of the experiment. The inhibitor concentration for 50% reduction in pDNA-PK induction (EC50) was determined via immunohistochemical staining in spheroid cryosections taken 2 hours following radiation using anti-pDNA-PK (ser 2056) and fixed immediately in formalin following sectioning. For cell survival endpoint 8 Gy radiation was used and, 3 hours following radiation, spheroids were dissociated, counted and plated for colony forming endpoint. Data presented in the table compound potency as EC50 [μM].
# [2] = molecular target: T2, DNA-PK phosphorylation at Serine 2056 (Homo sapiens, UniProt P78527); assay: Cellular Assay for Inhibition of DNA-PK Phosphorylation at Serine 2056 (FaDu cells, neocarzinostatin, sandwich ELISA); assay type: cell-based; details: Table 1
# T2 construct: host or cells: FaDu
# In short: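 FaDu cells were pretreated with compound (0.3% DMSO) for 1 h, then exposed to neocarzinostatin at 1 μg/mL final for 2 h to induce DSBs. Protein-normalized lysates were assayed by MSD sandwich ELISA for total and pSer2056 DNA-PK. IC50 came from variable-slope fits of % inhibition relative to DMSO and NCS controls.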
# DNA-PK = molecular target: T3, DNA-PK (Homo sapiens, UniProt P78527); assay: DNA-PK Assay for Biochemical Enzymatic Inhibition (ADP Glo Kinase assay); details: Table 1
# T3 construct: purchased Invitrogen PR9107A
# Protocol: A biochemical assay was performed to identify IC50 values against DNA-PK activity in a two-step reaction with a kinase reaction followed by ADP Glo™ Kinase assay Kit (Promega V9102).
# Three-fold serial dilutions of compounds in DMSO were prepared in kinase assay buffer (50 mM HEPES pH 7.5, 20 mM MgCl2, 100 mM KCl, 50 μM DTT, 10 μg/ml calf thymus DNA, 0.01% Tween 20). Kinase assay buffer was used to prepare compound treatments to 0.02% DMSO (dimethyl sulphoxide) content. DMSO controls were prepared to produce a maximum and minimum luminescence signal for normalization. Substrate (Anaspec, AS-60210-5) and ATP (Promega V9102) and ATP mix was prepared by dilution in kinase assay buffer for 434.4 μM and 64.4 μM final assay concentrations, respectively. Compounds and control were added to 25 ng DNA-PK enzyme (Invitrogen, PR9107A) diluted in kinase buffer in assay plate (Corning 267459) and incubated for 15 minutes at room temperature prior to addition of substrate and ATP mix.
# Throughout the assay, each time a reagent was added to the microplate, it was centrifuged for 1 minute at 1300 rcf. All reagents were added, and incubations carried out at room temperature. The reaction was then incubated for 60 minutes. ADP-ATP standards at 0, 4, 10, 40, 80, and 100% ADP (prepared as specified in the ADP Glo™ Kinase assay kit) were also added to the microplate at a volume equal to the total kinase reaction. The ADP Glo™ Kinase Assay kit was then used to quantify DNA-PK activity: following the 60-minute incubation, a 1:1 volume of ADP Glo reagent was added to all wells, then following a further 45-minute incubation, a 1:1 volume of Kinase Detection Reagent was added to all wells. After this two-step assay, plates were incubated in a Synergy-Neo2 plate reader for 30 minutes with gentle shaking, followed by endpoint luminescent read Luminescence data was normalized by subtracting the background signal and expressing all background-adjusted values as a percentage of the average maximum signal. The data was then expressed as percent inhibition by subtracting from 100% (i.e. maximum luminescent signal will be 0% inhibition) and the resulting data plotted against ten concentration points on a logarithmic scale, using GraphPad Prism. Non-linear regression analysis was performed on each concentration response curve and the log [inhibitor] vs response—variable slope (four parameters) equation was selected to generate IC50 values.
# [3] = Example 7, spheroid, cell line HCT115 [sic], 20% O2, read-out: EC50 (pDNA-PK inhibition, immunohistochemical endpoint)
# [4] = Example 9 Study 2, 20% O2, read-out: Spheroid Cell line: HCT116 Immunohistochemical endpoint pDNA-PK inhibition EC50
SMILES,"EC50 [1, 3] [µM]","EC50 [1, 4] [µM]",IC50 [2] [nM],IC50 (DNA-PK) [nM],"EC50 ([1]; Example 8, spheroid, read-out: Cell line: HCT116 Immunohistochemical endpoint pDNA-PK inhibition EC50) [µM]"
"Fc1cnc(N[C@H]2CC[C@@H](Oc3nc(N4CCOCC4)cc4ncccc34)CC2)nc1 [Compound 40, 5-fluoro-N-((1s,4s)-4-((7-morpholino-1,6-naphthyridin-5-yl)oxy)cyclohexyl)pyrimidin-2-amine]",1 to 10,1 to 10,100 to 1000,< 0.5,
"Clc1cnc(N[C@H]2CC[C@@H](Oc3nc(N4CCOCC4)cc4ncccc34)CC2)nc1 [Compound 41, 5-chloro-N-((1s,4s)-4-((7-morpholino-1,6-naphthyridin-5-yl)oxy)cyclohexyl)pyrimidin-2-amine]",1 to 10,1 to 10,100 to 1000,0.5 to 1,
"Ic1cnc(N[C@H]2CC[C@@H](Oc3nc(N4CCOCC4)cc4ncccc34)CC2)nc1 [Compound 42, 5-iodo-N-((1s,4s)-4-((7-morpholino-1,6-naphthyridin-5-yl)oxy)cyclohexyl)pyrimidin-2-amine]",1 to 10,1 to 10,100 to 1000,0.5 to 1,
"FC(F)(F)c1ccnc(N[C@H]2CC[C@@H](Oc3nc(N4CCOCC4)cc4ncccc34)CC2)n1 [Compound 47, N-((1s,4s)-4-((7-morpholino-1,6-naphthyridin-5-yl)oxy)cyclohexyl)-4-(trifluoromethyl)pyrimidin-2-amine]",1 to 10,1 to 10,< 100,1 to 10,
"CN(C)c1ccnc(N[C@H]2CC[C@@H](Oc3nc(N4CCOCC4)cc4ncccc34)CC2)n1 [Compound 50, N4,N4-dimethyl-N2-((1s,4s)-4-((7-morpholino-1,6-naphthyridin-5-yl)oxy)cyclohexyl)pyrimidine-2,4-diamine]",1 to 10,1 to 10,100 to 1000,0.5 to 1,
"O=C(O)c1cnc(N[C@H]2CC[C@@H](Oc3nc(N4CCOCC4)cc4ncccc34)CC2)nc1 [Compound 51, 2-(((1s,4s)-4-((7-morpholino-1,6-naphthyridin-5-yl)oxy)cyclohexyl)amino)pyrimidine-5-carboxylic acid]",0.5 to 1,0.5 to 1,1000 to 10000,< 0.5,
"Clc1nc(N[C@H]2CC[C@@H](Oc3nc(N4CCOCC4)cc4ncccc34)CC2)c2occc2n1 [Compound 80b, 2-chloro-N-((1s,4s)-4-((7-morpholino-1,6-naphthyridin-5-yl)oxy)cyclohexyl)furo[3,2-d]pyrimidin-4-amine]",1 to 10,1 to 10,100 to 1000,< 0.5,
"c1cnc2cc(N3CCOCC3)nc(O[C@H]3CC[C@@H](Nc4ccc5nccn5n4)CC3)c2c1 [Compound 90, N-((1s,4s)-4-((7-Morpholino-1,6-naphthyridin-5-yl)oxy)cyclohexyl)imidazo[1,2-b]pyridazin-6-amine]",1 to 10,1 to 10,100 to 1000,0.5 to 1,
"Cc1cc2ncnn2cc1N[C@H]1CC[C@@H](Oc2nc(N3CCOCC3)cc3ncccc23)CC1 [Compound 91, 7-Methyl-N-((1s,4s)-4-((7-morpholino-1,6-naphthyridin-5-yl)oxy)cyclohexyl)-[1,2,4]triazolo[1,5-a]pyridin-6-amine]",10 to 100,10 to 100,1000 to 10000,1 to 10,
"c1cnc2cc(N3CCOCC3)nc(O[C@H]3CC[C@@H](Nc4ccc5ncnn5c4)CC3)c2c1 [Compound 92, N-((1s,4s)-4-((7-Morpholino-1,6-naphthyridin-5-yl)oxy)cyclohexyl)-[1,2,4]triazolo[1,5-a]pyridin-6-amine]",1 to 10,1 to 10,100 to 1000,1 to 10,
"CCCC(=O)N[C@H]1CC[C@@H](Oc2nc(N3CCOCC3)cc3ncccc23)CC1 [Compound 103, N-((1s,4s)-4-((7-Morpholino-1,6-naphthyridin-5-yl)oxy)cyclohexyl)butyramide]",10 to 100,10 to 100,100 to 1000,1 to 10,10 to 100
